Test results from patent US9957251B2 (Takeda Pharmaceutical Company Limited, priority 2014, dated 2018).

Tests used:
[1] = system: SW480 human colorectal cancer cells; assay: Antitumor efficacy in mice bearing SW480 human colorectal cancer xenograft; type: in vivo, BALB/c female nude mice; conditions: Mus musculus, SW480, 336 h, oral, 1 dose per day, 14 days, percent tumor growth relative to control group, read-out: T/C (%)
Procedure: The compound of the present invention was evaluated for its antitumor efficacy in mice bearing cancer derived from SW480 human colorectal cancer cells by the following method.
SW480 human colorectal cancer cells were transplanted into 6- to 7-week-old BALB/c female nude mice (CLEA Japan) by subcutaneous injection of 2.0×10^6 cells per mouse. At 7 to 14 days after the transplantation, the size of the engrafted tumor was measured, and the tumor volume was calculated according to the following formula. Tumor volume=major axis×minor axis×minor axis×(½)
Test subjects having an engrafted tumor with a tumor volume of approximately 100 mm^3 were selected and used in the experiment (6 subjects per group). A suspension of each test compound in a 0.5% methylcellulose solution (Wako Pure Chemical Industries) was orally administered to the mice for 14 days at the dose (mg/kg body weight, indicating the amount per dose) and the number of doses shown in Table 4. On the day before the start of the administration and the day before the completion of the administration, the tumor size was measured, and the tumor volume was calculated.
Percent tumor growth (T/C (%)) of the test compound administration group relative to the control administration group was calculated according to the following formula. T/C(%)=(tumor volume of the test compound administration group after the completion of the administration−tumor volume of the test compound administration group at the day before the start of the administration)/(tumor volume of the control administration group after the completion of the administration−tumor volume of the control administration group at the day before the start of the administration))×100

[2] = system: human multiple myeloma RPMI8226 cells; assay: Inhibitory activity against human multiple myeloma RPMI8226 cell growth (CellTiter-Glo); type: cell-based; conditions: Homo sapiens, RPMI-8226, 192 h, 1 μM of the test compound, cultured for 8 days; read-out: Percent inhibition of RPMI8226 cell growth (%)
How it was run: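 RPMI8226 cells (300/well) cultured 1 day at 37 °C, 5% CO2, then given compound at 1 μM for 8 days. ATP luminescence (CellTiter-Glo) read; percent inhibition relative to 0.1% DMSO wells.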

[3] = biological target: T1, CDK8/CycC (Homo sapiens, UniProt P49336); assay: CDK8 inhibitory activity (TR-FRET, Kinase Tracer-236 displacement); type: binding; conditions: 1 μM of the test compound; read-out: Percent inhibition of CDK8 activity (%)
T1 construct: purchased Carna Biosciences
How it was run: (§1)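 Binding assay measuring displacement of Kinase Tracer-236 (60 nM in the added mix) by compound, using Eu-cryptate anti-GST antibody with CDK8/CycC (84 ng/mL) or CDC2L6/CycC (87 ng/mL) solutions. After 1 h at room temperature, TR-FRET read at 615 and 665 nm (excitation 320 nm).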

[4] = biological target: T2, CDK19 (CDC2L6/CycC) (Homo sapiens, UniProt Q9BWU1); assay: CDK19 inhibitory activity (TR-FRET, Kinase Tracer-236 displacement); type: binding; conditions: 1 μM of the test compound; read-out: Percent inhibition of CDK19 activity (%)
T2 construct: purchased Carna Biosciences
How it was run: as §1

T1 sequence (P49336 whole entry): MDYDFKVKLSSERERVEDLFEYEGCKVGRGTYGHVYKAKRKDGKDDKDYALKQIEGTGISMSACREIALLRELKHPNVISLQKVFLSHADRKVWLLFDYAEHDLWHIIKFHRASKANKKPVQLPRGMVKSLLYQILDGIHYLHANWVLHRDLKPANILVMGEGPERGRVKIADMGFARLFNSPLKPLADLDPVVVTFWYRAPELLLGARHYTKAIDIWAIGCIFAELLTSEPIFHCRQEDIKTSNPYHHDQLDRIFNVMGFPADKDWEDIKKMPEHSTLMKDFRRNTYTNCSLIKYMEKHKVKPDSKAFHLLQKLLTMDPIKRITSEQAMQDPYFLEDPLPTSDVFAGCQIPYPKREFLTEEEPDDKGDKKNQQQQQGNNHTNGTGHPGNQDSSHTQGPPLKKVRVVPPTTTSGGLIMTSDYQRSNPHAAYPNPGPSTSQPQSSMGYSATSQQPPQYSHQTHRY
T1 sequence (P24863 whole entry partner): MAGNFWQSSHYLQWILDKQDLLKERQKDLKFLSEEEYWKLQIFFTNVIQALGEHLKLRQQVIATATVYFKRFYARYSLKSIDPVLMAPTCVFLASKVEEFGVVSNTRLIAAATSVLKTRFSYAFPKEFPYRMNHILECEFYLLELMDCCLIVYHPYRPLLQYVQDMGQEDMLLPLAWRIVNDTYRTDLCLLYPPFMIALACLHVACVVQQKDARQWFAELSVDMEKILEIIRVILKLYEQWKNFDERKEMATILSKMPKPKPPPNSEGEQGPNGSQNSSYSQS
T2 sequence (Q9BWU1 whole entry): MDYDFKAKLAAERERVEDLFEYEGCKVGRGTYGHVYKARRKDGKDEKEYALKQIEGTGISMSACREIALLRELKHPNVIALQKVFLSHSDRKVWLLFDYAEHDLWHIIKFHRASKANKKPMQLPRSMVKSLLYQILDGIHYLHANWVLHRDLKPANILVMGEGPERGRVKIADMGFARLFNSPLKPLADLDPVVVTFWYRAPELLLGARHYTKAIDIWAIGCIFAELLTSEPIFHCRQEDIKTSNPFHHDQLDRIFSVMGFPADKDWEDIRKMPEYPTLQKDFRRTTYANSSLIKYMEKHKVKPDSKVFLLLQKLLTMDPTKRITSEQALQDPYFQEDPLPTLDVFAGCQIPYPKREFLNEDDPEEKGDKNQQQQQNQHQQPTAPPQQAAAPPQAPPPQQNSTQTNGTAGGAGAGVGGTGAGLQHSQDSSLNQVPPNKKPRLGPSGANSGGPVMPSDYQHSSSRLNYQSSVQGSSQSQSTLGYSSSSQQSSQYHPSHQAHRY
T2 sequence (P24863 whole entry partner): as the sequence (P24863 whole entry partner) above

SMILES	response vs control in vivo at 30 mg/kg [1] [%]	inhibition at 1 µM [2] [%]	inhibition at 1 µM [3] [%]	inhibition at 1 µM [4] [%]	response vs control in vivo at 50 mg/kg [1] [%]
Cn1cc(-c2c(F)cncc2/C=C/C(=O)Nc2ccc(CN3CC(F)(F)C3)cc2)cn1 [Example 359, (2E)-N-(4-((3,3-Difluoroazetidin-1-yl)methyl)phenyl)-3-(5-fluoro-4-(1-methyl-1H-pyrazol-4-yl)pyridin-3-yl)acrylamide]	36	65	103	102	–
O=C(/C=C/c1cnccc1-c1cnn(C2CC2)c1)Nc1ccc(CN2CC(F)(F)C2)cc1 [Example 309, (2E)-3-(4-(1-Cyclopropyl-1H-pyrazol-4-yl)pyridin-3-yl)-N-(4-((3,3-difluoroazetidin-1-yl)methyl)phenyl)acrylamide]	51	58	105	101	–
Cn1cc(-c2ccncc2/C=C/C(=O)Nc2ccc3c(c2)CN(CC(F)(F)F)C3)cn1 [Example 289, (2E)-3-(4-(1-Methyl-1H-pyrazol-4-yl)pyridin-3-yl)-N-(2-(2,2,2-trifluoroethyl)-2,3-dihydro-1H-isoindol-5-yl)acrylamide]	–	64	98	102	31
O=C(/C=C/c1cnccc1-c1cnn(C2CC2)c1)Nc1ccc(CN2CCOCC2)cc1 [Example 97, (2E)-3-(4-(1-Cyclopropyl-1H-pyrazol-4-yl)pyridin-3-yl)-N-(4-(morpholin-4-ylmethyl)phenyl)acrylamide]	–	53	92	102	37
Cn1cc(-c2ccncc2/C=C/C(=O)Nc2ccc3c(c2)CN(CC(F)(F)F)CC3)cn1 [Example 216, (2E)-3-(4-(1-Methyl-1H-pyrazol-4-yl)pyridin-3-yl)-N-(2-(2,2,2-trifluoroethyl)-1,2,3,4-tetrahydroisoquinolin-7-yl)acrylamide]	–	59	102	100	43
O=C(/C=C/c1cncc(F)c1-c1cnn(C2CC2)c1)Nc1ccc2c(c1)CN(CC(F)(F)F)C2 [Example 324, (2E)-3-(4-(1-Cyclopropyl-1H-pyrazol-4-yl)-5-fluoropyridin-3-yl)-N-(2-(2,2,2-trifluoroethyl)-2,3-dihydro-1H-isoindol-5-yl)acrylamide]	29	58	104	100	–
O=C(/C=C/c1cncc(F)c1-c1cnn(C2CC2)c1)Nc1ccc(CN2CCOCC2)cc1F [Example 273, (2E)-3-(4-(1-Cyclopropyl-1H-pyrazol-4-yl)-5-fluoropyridin-3-yl)-N-(2-fluoro-4-(morpholin-4-ylmethyl)phenyl)acrylamide]	–	64	101	96	36
Cn1cc(-c2ccncc2/C=C/C(=O)Nc2ccc3c(c2)OCCO3)cn1 [Example 168, (2E)-N-(2,3-dihydro-1,4-benzodioxin-6-yl)-3-(4-(1-methyl-1H-pyrazol-4-yl)pyridin-3-yl)acrylamide]	–	59	100	97	–
O=C(/C=C/c1cnccc1-c1cccs1)Nc1ccc(CCc2nnco2)cc1 [Example 1, (2E)-N-(4-(2-(1,3,4-Oxadiazol-2-yl)ethyl)phenyl)-3-(4-(2-thienyl)pyridin-3-yl)acrylamide]	–	59	101	100	–
Cn1cc(-c2ccncc2/C=C/C(=O)Nc2ccc3c(c2)OCO3)cn1 [Example 163, (2E)-N-(1,3-benzodioxol-5-yl)-3-(4-(1-methyl-1H-pyrazole-4-yl)pyridin-3-yl)acrylamide]	–	53	96	94	–
O=C(/C=C/c1cnccc1-c1cnn(C2CC2)c1)Nc1ccc2c(c1)CN(CC(F)(F)C(F)(F)F)CC2 [Example 300, (2E)-3-(4-(1-cyclopropyl-1H-pyrazol-4-yl)pyridin-3-yl)-N-(2-(2,2,3,3,3-pentafluoropropyl)-1,2,3,4-tetrahydroisoquinolin-7-yl)acrylamide]	–	57	97	94	–
O=C(/C=C/c1cnccc1-c1cnn(C2CC2)c1)Nc1ccc(COCC(F)(F)F)cc1F [Example 330, (2E)-3-(4-(1-Cyclopropyl-1H-pyrazol-4-yl)pyridin-3-yl)-N-(2-fluoro-4-((2,2,2-trifluoroethoxy)methyl)phenyl)acrylamide]	–	53	101	96	–
Cn1cc(-c2ccncc2/C=C/C(=O)Nc2ccc(CN3CCOCC3)cc2F)cn1 [Example 41, (2E)-N-(2-Fluoro-4-(morpholin-4-ylmethyl)phenyl)-3-(4-(1-methyl-1H-pyrazol-4-yl)pyridin-3-yl)acrylamide]	–	56	99	97	–
Cn1cc(-c2c(F)cncc2/C=C/C(=O)Nc2ccc3c(c2)CN(CC(F)(F)F)C3)cn1 [Example 327, (2E)-3-(5-Fluoro-4-(1-methyl-1H-pyrazol-4-yl)pyridin-3-yl)-N-(2-(2,2,2-trifluoroethyl)-2,3-dihydro-1H-isoindol-5-yl)acrylamide]	–	56	106	104	–
Cn1cc(-c2ccncc2/C=C/C(=O)Nc2ccc(CN3CC4CC3CO4)cc2)cn1 (centres unmarked) [Example 51, (2E)-3-(4-(1-methyl-1H-pyrazol-4-yl)pyridin-3-yl)-N-(4-(2-oxa-5-azabicyclo[2.2.1]hept-5-ylmethyl)phenyl)acrylamide]	–	58	100	96	–
O=C(/C=C/c1cnccc1-c1cnn(C(F)F)c1)Nc1ccc(CN2CCOCC2)cc1 [Example 98, (2E)-3-(4-(1-(Difluoromethyl)-1H-pyrazol-4-yl)pyridin-3-yl)-N-(4-(morpholin-4-ylmethyl)phenyl)acrylamide]	–	53	98	100	–
Cn1cnc2ccc(-c3c(F)cncc3/C=C/C(=O)Nc3ccc4c(c3)CN(CC(F)(F)F)C4)cc21 [Example 357, (2E)-3-(5-fluoro-4-(1-methyl-1H-benzimidazol-6-yl)pyridin-3-yl)-N-(2-(2,2,2-trifluoroethyl)-2,3-dihydro-1H-isoindol-5-yl)acrylamide]	–	69	101	96	–
Cn1cc(-c2ccncc2/C=C/C(=O)Nc2ccc3cc[nH]c3c2)cn1 [Example 155, (2E)-N-(1H-indol-6-yl)-3-(4-(1-methyl-1H-pyrazol-4-yl)pyridin-3-yl)acrylamide]	–	54	98	93	–
O=C(/C=C/c1cnccc1-c1cnn(C2CCC2)c1)Nc1ccc(CN2CCOCC2)cc1 [Example 258, (2E)-3-(4-(1-cyclobutyl-1H-pyrazol-4-yl)pyridin-3-yl)-N-(4-(morpholin-4-ylmethyl)phenyl)acrylamide]	–	54	96	96	–
O=C(/C=C/c1cnccc1-c1cnn(C2CC2)c1)Nc1ccc(CN2CCOCC2)cc1F [Example 194, (2E)-3-(4-(1-Cyclopropyl-1H-pyrazol-4-yl)pyridin-3-yl)-N-(2-fluoro-4-(morpholin-4-ylmethyl)phenyl)acrylamide]	–	53	99	99	36
Cc1nn(C)cc1-c1ccncc1/C=C/C(=O)Nc1ccc(CCc2nnco2)cc1 [Example 19, (2E)-3-(4-(1,3-dimethyl-1H-pyrazol-4-yl)pyridin-3-yl)-N-(4-(2-(1,3,4-oxadiazol-2-yl)ethyl)phenyl)acrylamide]	–	54	100	98	–
